Patent publication US5334393A, “Sustained-release tablet based on isosorbide 5-mononitrate and process for preparing it” (Pierre Fabre Medicament, priority 1990, dated 1994)

Columns and labels:
[1] = Particle size by air-jet sieve (ALPIN JET SIEVE); assay type: physicochemical; settings: for particle size fraction 100 μm to 250 μm: desired profile 20 to 50%; for particle size fraction 80 μm to 100 μm: desired profile 40 to 60%; for particle size fraction larger than 500 μm: desired profile ≤ 0.5%; for particle size fraction 250 μm to 500 μm: desired profile ≤ 5%
Source text: The air-Jet sieve method used according to the invention to define the particle size of the 5-ISMN is a technique widely used by those skilled in the art on account of its great sensitivity and reliability, and is consequently very familiar to them. The operating conditions employed in the context of the invention will be clarified in greater detail below.
Characterization of the particle size of the 5-ISMN used according to the invention by the air-jet sieve, type ALPIN JET SIEVE, method
350 g (sic) partial air vacuum,
time 4 min from 80 to 100 μm, then 3 mm (sic) from 250 to 500 μm.
Under these conditions, three batches of 5-ISMN, A, B and C, were tested.

[2] = plasma; recorded value; cited from earlier work
[3] = Physical properties of 5-ISMN (static electricity, flowability, sublimation, solubility); assay type: physicochemical; settings: well-defined particle size fraction of 5-ISMN powder
[4] = In vivo absorption profile
[5] = cited from earlier work
[6] = Kinetics of release in vitro (rotating paddle dissolution); assay type: physicochemical; settings: composition according to the invention, 100 rpm/900 ml of water
Procedure: The study of the changes in the percentage of 5-ISMN dissolved was performed as a function of time. This test was carried out using a rotating paddle apparatus (100 rpm/900 ml of water).

[7] = Kinetics of release of the active principle in vitro as a function of pH; assay type: physicochemical; settings: tablet according to the invention
Procedure: This study was carried out at pH values of 1.5, 4.25 and 7.2 and variable values.

O=[N+]([O-])O[C@@H]1CO[C@H]2[C@@H]1OC[C@@H]2O [B, isosorbide 5-mononitrate]
particle size fraction 100 μm to 250 μm [1]: 34.4%
particle size fraction 80 μm to 100 μm [1]: 48.2%
particle size fraction larger than 500 μm [1]: 0.0%
particle size fraction 250 μm to 500 μm [1]: 0.9%

O=[N+]([O-])O[C@@H]1CO[C@H]2[C@@H]1OC[C@@H]2O [C, isosorbide 5-mononitrate]
particle size fraction 100 μm to 250 μm [1]: 34.85%
particle size fraction 80 μm to 100 μm [1]: 49.2%
particle size fraction larger than 500 μm [1]: 0.0%
particle size fraction 250 μm to 500 μm [1]: 0.0%

O=[N+]([O-])O[C@@H]1CO[C@H]2[C@@H]1OC[C@@H]2O [5-ISMN, isosorbide 5-mononitrate]
minimal effective concentration (Ceff) [2]: 100 ng/mL
electrostatic phenomena [3]: low level of electrostatic phenomena
flowability and compressibility [3]: qualities of flowability and compressibility
tendency to sublime [3]: far less marked tendency to sublime
constant mean flux of in vivo absorption ([4]; calculated from mean curve of percentages of 5-ISMN absorbed): ~13.37 % h^-1
absorption profile ([4]; mean curve for the percentages of 5-ISMN absorbed): zero order entry up to approximately the fifth hour following administration
sublimation ([5]; 60° C., 75% relative humidity): sublimation phenomenon
flowability ([5]; static electricity phenomenon, dry mixing): virtually zero flowability
solubility in water and buffer solutions ([5]; water and buffer solutions): very high solubility
% dissolved at 0.25 hour ([6]; 0.25 hour): 5% to 20%
% dissolved at 1 hour ([6]; 1 hour): 20% to 40%
% dissolved at 4 hours ([6]; 4 hours): 60% to 80%
% dissolved at 8 hours ([6]; 8 hours): ≥ 80%
kinetic profiles of release at constant pH ([7]; pH 1.5, 4.25 and 7.2): do not differ significantly from one another
dissolution profile obtained at variable pH ([7]; variable pH): pH-independent mode of release

O=[N+]([O-])O[C@@H]1CO[C@H]2[C@@H]1OC[C@@H]2O [A, isosorbide 5-mononitrate]
particle size fraction 100 μm to 250 μm [1]: 26%
particle size fraction 80 μm to 100 μm [1]: 47.5%
particle size fraction larger than 500 μm [1]: 0.0%
particle size fraction 250 μm to 500 μm [1]: 0.0%
